Experimental data as given in the supplement of paper PMC11061612.

What was measured:
Capivasertib = compound: C1CN(CCC1(C(=O)N[C@@H](CCO)C2=CC=C(C=C2)Cl)N)C3=NC=NC4=C3C=CN4 [Capivasertib]; conditions: max 10 µM
In short: (§1)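 Plates with 1536 wells received cancer cell lines in 7.5 μl of DMEM/F12 or RPMI containing 10% FBS. After 24 hours at 37°C and 5% CO2, cells were dosed for 72 hours with final DMSO typically 0.2%, and viability was read by CellTiter-Glo 2.0 luminescence scaled between blank-well and DMSO-well means. The single-agent IC50 was taken from a logistic fit of the dose responses made with a non-linear mixed effects model, that logistic curve having two parameters.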

AZD1775 = compound: C=CCn1c(=O)c2cnc(Nc3ccc(N4CCN(C)CC4)cc3)nc2n1-c1cccc(C(C)(C)O)n1 [AZD1775]; conditions: max 3 µM
In short: as §1

Trametinib = compound: CC(=O)Nc1cccc(-n2c(=O)n(C3CC3)c(=O)c3c(Nc4ccc(I)cc4F)n(C)c(=O)c(C)c32)c1 [Trametinib]; conditions: max 1 µM
In short: as §1

Palbociclib = compound: CC(=O)c1c(C)c2cnc(Nc3ccc(N4CCNCC4)cn3)nc2n(C2CCCC2)c1=O [Palbociclib]; conditions: max 10 µM
In short: as §1

AZD1390 = compound: CC(C)n1c(=O)n(C)c2cnc3cc(F)c(-c4ccc(OCCCN5CCCCC5)nc4)cc3c21 [AZD1390]; conditions: max 0.3 µM
In short: as §1

Venetoclax = compound: CC1(C)CCC(CN2CCN(c3ccc(C(=O)NS(=O)(=O)c4ccc(NCC5CCOCC5)c([N+](=O)[O-])c4)c(Oc4cnc5[nH]ccc5c4)c3)CC2)=C(c2ccc(Cl)cc2)C1 [Venetoclax]; conditions: max 1 µM
In short: as §1

Dasatinib = compound: CC1=C(C(=CC=C1)Cl)NC(=O)C2=CN=C(S2)NC3=CC(=NC(=N3)C)N4CCN(CC4)CCO [Dasatinib]; conditions: max 2 µM
In short: as §1

SG3199 = compound: CC1=CN2[C@@H](C1)C=NC3=CC(=C(C=C3C2=O)OC)OCCCCCOC4=C(C=C5C(=C4)N=C[C@@H]6CC(=CN6C5=O)C)OC [SG3199]; conditions: max 0.001 µM
In short: as §1

AZD2811 = compound: CCN(CCO)CCCOc1ccc2c(Nc3cc(CC(=O)Nc4cccc(F)c4)[nH]n3)ncnc2c1 [AZD2811]; conditions: max 1 µM
In short: as §1

SN-38 = compound: CCc1c2c(nc3ccc(O)cc13)-c1cc3c(c(=O)n1C2)COC(=O)[C@]3(O)CC [SN-38]; conditions: max 0.3 µM
In short: as §1

AZD0156 = compound: CN(C)CCCOc1ccc(-c2ccc3ncc4c(c3c2)n(C2CCOCC2)c(=O)n4C)cn1 [AZD0156]; conditions: max 3 µM
In short: as §1

AZD4320 = compound: CN(CC[C@H](CSC1=CC=CC=C1)NC2=C(C=C(C=C2)S(=O)(=O)NC(=O)C3=CC=C(C=C3)N4CCC(CC4)[C@H](C5=CC=CC=C5C6=CC=C(C=C6)Cl)O)S(=O)(=O)C(F)(F)F)CCO [AZD4320]; conditions: max 1 µM
In short: as §1

Alisertib = compound: COc1cc(Nc2ncc3c(n2)-c2ccc(Cl)cc2C(c2c(F)cccc2OC)=NC3)ccc1C(=O)O [Alisertib]; conditions: max 10 µM
In short: as §1

Gefitinib = compound: COc1cc2ncnc(Nc3ccc(F)c(Cl)c3)c2cc1OCCCN1CCOCC1 [Gefitinib]; conditions: max 10 µM
In short: as §1

Prexasertib = compound: COc1cccc(OCCCN)c1-c1cc(Nc2cnc(C#N)cn2)n[nH]1 [Prexasertib]; conditions: max 1 µM
In short: as §1

Doxorubicin = compound: COc1cccc2c1C(=O)c1c(O)c3c(c(O)c1C2=O)C[C@@](O)(C(=O)CO)C[C@@H]3O[C@H]1C[C@H](N)[C@H](O)[C@H](C)O1 [Doxorubicin]; conditions: max 1 µM
In short: as §1

AZD5153 = compound: COc1nnc2ccc(N3CCC(c4ccc(OCCN5CCN(C)C(=O)[C@H]5C)cc4)CC3)nn12 [AZD5153]; conditions: max 1 µM
In short: as §1

Lapatinib = compound: CS(=O)(=O)CCNCc1ccc(-c2ccc3ncnc(Nc4ccc(OCc5cccc(F)c5)c(Cl)c4)c3c2)o1 [Lapatinib]; conditions: max 10 µM
In short: as §1

AZD8186 = compound: C[C@@H](Nc1cc(F)cc(F)c1)c1cc(C(=O)N(C)C)cc2c(=O)cc(N3CCOCC3)oc12 [AZD8186]; conditions: max 3 µM
In short: as §1

Crizotinib = compound: C[C@@H](Oc1cc(-c2cnn(C3CCNCC3)c2)cnc1N)c1c(Cl)ccc(F)c1Cl [Crizotinib]; conditions: max 10 µM
In short: as §1

Savolitinib = compound: C[C@@H](c1ccc2nccn2c1)n1nnc2ncc(-c3cnn(C)c3)nc21 [Savolitinib]; conditions: max 1 µM
In short: as §1

AZD6738 = compound: C[C@@H]1COCCN1C2=NC(=NC(=C2)C3(CC3)[S@](=N)(=O)C)C4=C5C=CNC5=NC=C4 [AZD6738]; conditions: max 10 µM
In short: as §1

AZD5991 = compound: Cc1c2c(nn1C)CSCc1cc(n(C)n1)CSc1cc(c3ccccc3c1)OCCCc1c(C(=O)O)n(C)c3c-2c(Cl)ccc13 [AZD5991]; conditions: max 1 µM
In short: as §1

AZD7648 = compound: Cc1cc2ncnn2cc1Nc1ncc2c(n1)n(C1CCOCC1)c(=O)n2C [AZD7648]; conditions: max 10 µM
In short: as §1

Taselisib = compound: Cc1nc(-c2cn3c(n2)-c2ccc(-c4cnn(C(C)(C)C(N)=O)c4)cc2OCC3)n(C(C)C)n1 [Taselisib]; conditions: max 10 µM
In short: as §1

Selumetinib = compound: Cn1cnc2c(F)c(Nc3ccc(Br)cc3Cl)c(C(=O)NOCCO)cc21 [Selumetinib]; conditions: max 10 µM
In short: as §1

Olaparib = compound: O=C(c1cc(Cc2n[nH]c(=O)c3ccccc23)ccc1F)N1CCN(C(=O)C2CC2)CC1 [Olaparib]; conditions: max 10 µM
In short: as §1

Cell Line	IC50, cell viability 72 h (Capivasertib) [µM]	IC50, cell viability 72 h (AZD1775) [µM]	IC50, cell viability 72 h (Trametinib) [µM]	IC50, cell viability 72 h (Palbociclib) [µM]	IC50, cell viability 72 h (AZD1390) [µM]	IC50, cell viability 72 h (Venetoclax) [µM]	IC50, cell viability 72 h (Dasatinib) [µM]	IC50, cell viability 72 h (SG3199) [µM]	IC50, cell viability 72 h (AZD2811) [µM]	IC50, cell viability 72 h (SN-38) [µM]	IC50, cell viability 72 h (AZD0156) [µM]	IC50, cell viability 72 h (AZD4320) [µM]	IC50, cell viability 72 h (Alisertib) [µM]	IC50, cell viability 72 h (Gefitinib) [µM]	IC50, cell viability 72 h (Prexasertib) [µM]	IC50, cell viability 72 h (Doxorubicin) [µM]	IC50, cell viability 72 h (AZD5153) [µM]	IC50, cell viability 72 h (Lapatinib) [µM]	IC50, cell viability 72 h (AZD8186) [µM]	IC50, cell viability 72 h (Crizotinib) [µM]	IC50, cell viability 72 h (Savolitinib) [µM]	IC50, cell viability 72 h (AZD6738) [µM]	IC50, cell viability 72 h (AZD5991) [µM]	IC50, cell viability 72 h (AZD7648) [µM]	IC50, cell viability 72 h (Taselisib) [µM]	IC50, cell viability 72 h (Selumetinib) [µM]	IC50, cell viability 72 h (Olaparib) [µM]
P32-ISH (Burkitt's Lymphoma)	8.02	0.218	> 1	6.15	> 0.3	> 1	> 2	> 0.001	0.077	0.00182	> 3	> 1	0.02	> 10	0.00537	0.303	0.136	6.9	> 3	2.27	> 1	2.6	0.0501	> 10	8.18	> 10	> 10
DBTRG-05MG (Glioblastoma)	> 10	> 3	> 1	> 10	> 0.3	> 1	> 2	> 0.001	> 1	> 0.3	> 3	> 1	> 10	> 10	> 1	> 1	> 1	> 10	> 3	> 10	> 1	> 10	> 1	> 10	> 10	> 10	> 10
UACC-257 (Melanoma)	> 10	> 3	0.0412	> 10	> 0.3	> 1	> 2	> 0.001	> 1	> 0.3	> 3	> 1	> 10	> 10	> 1	> 1	> 1	> 10	> 3	> 10	> 1	> 10	> 1	> 10	> 10	2.33	> 10
BHT-101 (Thyroid Gland Carcinoma)	> 10	> 3	0.0182	9.12	> 0.3	> 1	1.1	> 0.001	> 1	0.0309	> 3	> 1	1.85	> 10	0.293	> 1	0.0601	> 10	> 3	8.67	> 1	9.26	> 1	> 10	6.45	1.36	> 10
